Measured values from patent US10954300B2, “Use of pentoxifylline with immune checkpoint-blockade therapies for the treatment of melanoma” (THE TRUSTEES OF COLUMBIA UNIVERSITY IN THE CITY OF NEW YORK, priority 2015, dated 2021).
“Also recorded” adds a separate entry of the source.

How the values were obtained:
c-Rel = biological target: T1, c-Rel (Mus musculus, UniProt P15307); test: Western blot on PTXF-treated Treg cells; type: cell-based, mice; conditions: Treg cells stimulated with anti-CD3/CD28 and mIL-2, 500 μg/mL PTXF
T1 construct: CD4+GFP+ Treg cells were sorted form Foxp3eGFP spleens; endogenous in cells; host or cells: primary splenic CD4+Foxp3+ Treg cells from reporter mice
Procedure: Total cells suspensions were then activated with 5 μg/mL plate-coated anti-mCD3, 1 μg/ml soluble anti-mCD28 (BioLegend) and 10 ng/mL mIL-2, overnight at 37 C. Treg cells were then washed for further use.
Total lysates were extracted using RIPA buffer and protease inhibitors with SDS. 20 μg (micrograms) protein extracts were ran in polyacrylamide gels and transferred onto PVDF membranes. Membranes were incubated with anti-p65, c-Rel (Santa-Cruz) and GAPDH (Fitzgerald) Abs, followed HRP-coupled secondary Abs.

B16F1 melanoma cells [1] = test: qPCR on total tumor RNA at D16, early PTXF treatment; type: in vivo, C57Bl/6J mice
p65 = conditions: cited from earlier work
B16F10 cells = test: B16F10 metastatic melanoma, lung foci; type: in vivo, C57Bl/6J mice; conditions: B16F10 i.v.; early PTXF treatment
Procedure: 5×10^4 B16F1 or 5×10^5 CT-26 or BRAF^[…]^-/- cells diluted in sterile PBS1X were injected subcutaneously into the shaved flank of each mouse. For metastasis experiments, 2.5×10^4 B16F10 cells were injected intravenously in the tail vein. […] Anti-PD-1 (RMP1-14), anti-PD-L1 (10F.9G2) and anti-CD8 (YTS.169-4) mAbs were obtained from BioXCell. Rat IgG isotype control was from R&D Systems.

Treg cells [2] = test: RNA-Seq of PTXF-treated Treg cells; type: cell-based, mice; conditions: 500 μg/mL PTXF
Procedure: Total cells suspensions were then activated with 5 μg/mL plate-coated anti-mCD3, 1 μg/ml soluble anti-mCD28 (BioLegend) and 10 ng/mL mIL-2, overnight at 37 C. Treg cells were then washed for further use. Total RNA was extracted using a Qiagen Rneasy Mini Kit with DNase treatment. For qPCR, RNA was reverse transcribed by Superscript III (Invitrogen). cDNAs were used for PCR with SYBR Green reagents (Quanta Biosciences, Gaithersburg, Md.) on a C1000 Touch thermal cycler (Bio Rad, Hercules, Calif.). The data was normalized to GAPDH expression. Primers sequences can be sent under request. For RNA-sequencing, libraries were prepared using an Illumina TruSeq Library Kit and sequenced by an Illumina 2500 instrument. Upon sequencing, raw FASTQ files were aligned on the mm10 genome using STAR aligner with default parameters (Dobin et al., 2013). Aligned fragments were then counted and annotated using Rsamtools v3.2 and the TxDb.Mmusculus.UCSC.mm10.knownGene' version 3.1.2 transcript database respectively. Normalized FPKM (fragments per kilobase per million mapped reads) were obtained using the robust FPKM estimate function of DeSeq2 v1.10.1 after removing the batch effect using the ComBat function of the sva package v3.18.0. Differentially expressed genes were obtained using the DESeqResults function of the same package. All p-values were adjusted for multiple comparison using the Benjamini & Hochberg FDR algorithm. For gene set enrichment analysis, the GSEA software was used, and Molecular Signature Database (MSigDB) including the ImmuneSigDB (C7 collection)(Godec et al., 2016; Subramanian et al., 2005).

Treg cells [3] = test: Flow cytometry of PTXF-treated Treg cells; type: cell-based, mice; conditions: 16 h stimulation, 500 μg/mL PTXF
Procedure: Cells were isolated from thymus, spleen and lymph nodes by mechanical desegregation in PBS+ FBS 3%. For tumor-infiltrating cell suspensions, total tumors were digested in DMEM (Gibco) supplemented with 1 mg/ml collagenase type IV (Sigma) and 1 mg/ml DNase I (Sigma) for 40 minutes at 37° C., followed by centrifugation in a 36% Percoll solution. For intracellular cytokines analyses, cell suspensions were incubated 3 hours with PMA (Sigma, 50 ng/mL), ionoymycin (Sigma, 1 μg/mL) in the presence of Golgi Plug (BD), or incubated 4 hours with mitomycin C-treated WT splenocytes loaded with […] gp100/pmel 17 peptide (Neo Biolab) in the presence of Golgi Plug. Cells were then stained with mAbs purchased by eBioscience or Tonbo Bioscience. Foxp3 and cytokine staining were performed using the eBioscience kit and protocol. Cells were acquired on a LSR II (BD Biosciences) and analyzed with FlowJo (Tree Star) software. […] Total cells suspensions were then activated with 5 μg/mL plate-coated anti-mCD3, 1 μg/ml soluble anti-mCD28 (BioLegend) and 10 ng/mL mIL-2, overnight at 37 C. Treg cells were then washed for further use.

B16F1 melanoma cells [4] = test: B16F1 melanoma growth, early treatment with PTXF or IT-603; type: in vivo, C57Bl/6 WT mice
Procedure: B16F1, B16F10 and CT-26 cells were obtained from the ATCC and grown in DMEM+10% FBS medium. BRAF^CAPten^−/− cells were originally derived from an in vivo melanoma induced by topical tamoxifen treatment of Ubc^cre-ERT2 BRAF^CA Pten^F/F, as described. All cell lines were periodically tested for murine pathogens. Cells were grown in DMEM supplemented with 10% FBS. When confluence reached 60-70%, cells were detached and washed in PBS1X. Fifty thousand cells diluted in 50 μL PBS1X were injected subcutaneously in the shaved abdomen of each mouse. Tumor growth was measured daily using a caliper.
Pentoxifylline (Sigma) powder was dissolved in PBS1X and sterile filtered prior to each injection. […] For the “curative” regimen, mice were treated daily from day 5-6 (when the tumor was visible and palpable) to day 11, following the same methods. IT-603 was reconstituted in DMSO and stored at −80° C. It then was diluted in PBS1X and sterile-filtered prior to each injection. […]
5×10^4 B16F1 or 5×10^5 CT-26 or BRAF^CAPten^−/− cells diluted in sterile PBS1X were injected subcutaneously into the shaved flank of each mouse. For metastasis experiments, 2.5×10^4 B16F10 cells were injected intravenously in the tail vein. […] Anti-PD-1 (RMP1-14), anti-PD-L1 (10F.9G2) and anti-CD8 (YTS.169-4) mAbs were obtained from BioXCell. Rat IgG isotype control was from R&D Systems. […] In FIG. 11A-11G, Balb/c mice harboring CT-26 tumors received a suboptimal dose of 100 μg of anti-PD-1.
C57BI/6 WT mice were injected subcutaneously with 5×10^4 B16F1 melanoma cells, and then injected with either PBS (control), pentoxifylline, or IT-603 (red arrows). Tumor growth was monitored daily.

T1 sequence (P15307 whole entry): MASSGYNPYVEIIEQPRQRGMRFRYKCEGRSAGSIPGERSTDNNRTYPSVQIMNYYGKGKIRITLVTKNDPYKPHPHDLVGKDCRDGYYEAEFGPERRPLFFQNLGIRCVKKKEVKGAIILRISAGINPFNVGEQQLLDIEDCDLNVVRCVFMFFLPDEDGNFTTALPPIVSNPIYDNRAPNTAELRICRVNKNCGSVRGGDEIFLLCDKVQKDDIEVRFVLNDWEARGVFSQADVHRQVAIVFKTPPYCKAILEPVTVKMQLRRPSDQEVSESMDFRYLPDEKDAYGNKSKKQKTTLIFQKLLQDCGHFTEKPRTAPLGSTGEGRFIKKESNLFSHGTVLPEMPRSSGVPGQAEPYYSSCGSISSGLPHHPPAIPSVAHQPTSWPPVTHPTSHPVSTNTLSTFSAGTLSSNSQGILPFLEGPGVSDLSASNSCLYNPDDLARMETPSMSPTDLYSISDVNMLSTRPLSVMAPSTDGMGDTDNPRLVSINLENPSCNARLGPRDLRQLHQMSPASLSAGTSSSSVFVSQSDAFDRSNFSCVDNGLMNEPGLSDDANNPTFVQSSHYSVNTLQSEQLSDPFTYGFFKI

CC(=O)CCCCn1c(=O)c2c(ncn2C)n(C)c1=O [PTXF, 1-(5-oxohexyl)-3,7-dimethylxanthine]
c-Rel protein (c-Rel): significant reduction of c-Rel protein | inflammatory response (activated T-cell markers and cytokines) in total tumors (B16F1 melanoma cells [1]): dramatic enhancement of the inflammatory response | increase of Ccl22 mRNA (B16F1 melanoma cells [1]; minor and non-significant): 1.2 × | levels of p65 in T cells in vitro (p65): unchanged | total number of metastatic foci in lungs (B16F10 cells): significantly decreased | Foxp3 mRNA (Treg cells [2]): unaffected | expression of Cbl-b (Treg cells [2]): up-regulated | expression of Gzmb and Tgfb1 (Treg cells [2]): decreased expression | expression of c-Rel mRNA (Treg cells [2]): unaffected | expression of genome organizer Sat1 (Treg cells [2]): up-regulated | expression of Treg markers such as Foxp3, CD25 and Helios (Treg cells [3]): significantly decreased expression | size or composition of lymphoid tissues (B16F1 melanoma cells [4]; B16F1-bearing mice, 50 mg/kg PTXF): No observable differences | adverse events (B16F1 melanoma cells [4]; B16F1-bearing mice, 50 mg/kg PTXF, 50 mg/kg): no apparent adverse events; also recorded: No adverse effects of treatment were observed | pace of tumor growth (B16F1 melanoma cells [4]; B16F1, daily injections of 50 mg/kg PTXF vs PBS): significant reduction in the pace of tumor growth | tumor growth (tumor volume, monitored daily) (B16F1 melanoma cells [4]; B16F1 s.c., PTXF 50 mg/kg or IT-603 10 mg/kg on days 0, 2, 3, 4, 6 and 8, vs control vehicle): significantly reduced growth of the tumors
